Biological target: T1, 5-HT1A receptor (Rattus norvegicus, UniProt P19327)
T1 construct: rat hippocampal membrane homogenate; from tissue; host or cells: rat hippocampus, membrane homogenate
T1 sequence (P19327 1-422): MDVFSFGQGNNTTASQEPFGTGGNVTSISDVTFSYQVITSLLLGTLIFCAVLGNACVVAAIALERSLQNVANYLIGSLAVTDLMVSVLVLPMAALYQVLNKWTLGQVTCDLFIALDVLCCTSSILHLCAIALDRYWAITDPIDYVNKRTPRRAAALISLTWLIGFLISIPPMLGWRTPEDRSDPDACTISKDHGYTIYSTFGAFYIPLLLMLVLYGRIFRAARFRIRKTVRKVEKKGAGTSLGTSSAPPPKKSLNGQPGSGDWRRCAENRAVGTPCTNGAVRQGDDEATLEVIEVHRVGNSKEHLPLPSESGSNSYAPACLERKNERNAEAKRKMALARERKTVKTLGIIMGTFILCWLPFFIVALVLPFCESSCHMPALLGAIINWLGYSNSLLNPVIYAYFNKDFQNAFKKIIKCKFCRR
Assay: 5-HT1A receptor binding activity in rat hippocampal membrane homogenate
Settings: method of Alexander and Wood
Method: The compounds of the invention are tested for 5-HT1A receptor binding activity in rat hippocampal membrane homogenate by the method of B. S. Alexander and M. D. Wood, J Pharm Pharmacol, 1988, 40, 888-891.

IC50: 20 nM
Compound: COc1ccccc1N1CCN(CC(c2ccccn2)C(O)c2ccccc2)CC1 (stereo not shown) [Example 2]

From US5346896A, “1-(aryl or heteroaryl)-4[ω-(aryl or heteroaryl)ω-(aryl or heteroaryl)alkylene]piperazines” (John Wyeth & Brother, Limited, priority 1990, dated 1994)
